Laboratory results: article PMC3898987 (Bioorganic & Medicinal Chemistry, 2013)
Positions count from the first letter of the chain named.

How the values were obtained:
[1] = target: T1, 5-HT3AB receptor, 5-HT3B subunit E170A (Homo sapiens, UniProt P46098); assay: biochemical; format: binding; details: [3H]-palonosetron saturation, 5-HT3AB with 5-HT3B E170A, 4 °C, 24 h
T1 construct: variant as stated: E170A
T1 sequence (P46098 24-478): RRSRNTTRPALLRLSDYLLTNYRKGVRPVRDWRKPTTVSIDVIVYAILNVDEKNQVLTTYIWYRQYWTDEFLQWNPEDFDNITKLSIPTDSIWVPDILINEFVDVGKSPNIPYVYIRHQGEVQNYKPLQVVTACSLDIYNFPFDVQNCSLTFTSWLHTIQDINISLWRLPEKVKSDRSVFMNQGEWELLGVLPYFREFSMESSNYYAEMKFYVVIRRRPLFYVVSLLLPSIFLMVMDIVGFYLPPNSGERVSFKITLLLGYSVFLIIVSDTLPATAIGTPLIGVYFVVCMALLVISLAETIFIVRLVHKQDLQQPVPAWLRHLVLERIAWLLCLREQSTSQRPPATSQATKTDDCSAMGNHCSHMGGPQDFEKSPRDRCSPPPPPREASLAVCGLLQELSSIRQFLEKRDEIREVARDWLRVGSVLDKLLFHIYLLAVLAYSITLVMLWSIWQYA
T1 sequence (O95264 22-441 partner): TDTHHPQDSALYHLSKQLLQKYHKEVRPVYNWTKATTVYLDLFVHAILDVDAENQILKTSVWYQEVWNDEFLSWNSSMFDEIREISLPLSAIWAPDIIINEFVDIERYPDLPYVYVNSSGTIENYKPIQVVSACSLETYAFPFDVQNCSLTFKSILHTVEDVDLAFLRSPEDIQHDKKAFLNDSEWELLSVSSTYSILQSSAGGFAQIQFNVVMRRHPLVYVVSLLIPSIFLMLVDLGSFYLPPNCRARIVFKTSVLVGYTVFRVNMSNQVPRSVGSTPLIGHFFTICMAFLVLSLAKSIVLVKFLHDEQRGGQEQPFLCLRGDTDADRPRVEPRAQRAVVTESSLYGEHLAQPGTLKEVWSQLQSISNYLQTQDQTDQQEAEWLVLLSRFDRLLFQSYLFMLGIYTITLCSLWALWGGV
Method: (§1) Human embryonic kidney (HEK) 293 cells were cultured on 90 mm tissue culture plates at 37 °C and 7% CO2 in a humidified atmosphere. They were grown in DMEM:F12 (Dulbecco’s Modified Eagle’s Medium/Nutrient Mix F12 (1:1)) with GlutaMAX I™ containing 10% fetal calf serum and passaged when confluent. For radioligand binding studies, cells in 90 mm dishes were transfected at 60–70% confluency using polyethyleneimine and incubated for 3–4 days before use. For FlexStation assays, transfected cells were plated on 96-well plates and incubated 1–2 days before assay. […]
(§2) Eight-point binding assays were performed to produce saturation binding curves. […] Radioactive counts were measured using a Beckman LS6000SC liquid scintillation counter (Fullerton, California, USA).
(§3) Data were analyzed by iterative curve fitting using GraphPad Prism v5 (San Diego, CA) according to the following equation: B=Bmax[L]^n/kdn+[L]^n where B is the amount of bound radioligand, Bmax is the maximum specific binding at equilibrium, [L] is the concentration of radioligand, Kd is the equilibrium dissociation constant of the radioligand, and n is the Hill coefficient.

5-HT3A receptor S163A = target: T2, 5-HT3A receptor S163A (Homo sapiens, UniProt P46098, S158A); assay: radioligand saturation binding, transfected HEK293 membranes; details: [3H]-palonosetron saturation, 5-HT3A S163A, 4 °C, 24 h
T2 sequence (P46098 24-478 S158A): T1 sequence (P46098 24-478) with S135A
Method: as §1, §2, §3

[2] = target: T3, 5-HT3AB receptor, 5-HT3B subunit Y143A (Homo sapiens, UniProt O95264+P46098, Y136A); assay: cell-based
T3 sequence (P46098 24-478): T1 sequence (P46098 24-478)
T3 sequence (O95264 22-441 Y136A): T1 sequence (O95264 22-441 partner) with Y115A
Method: (§4) For FlexStation assays, transfected cells were plated on 96-well plates and incubated 1–2 days before assay.
(§5) Fluorometric studies were undertaken using a FlexStation® (Molecular Devices, Sunnyvale, CA, USA) as previously described.[11]
(§6) Fluorescence was measured every 2 s for 200 s. […] Concentration–response and inhibition curves were obtained for each mutant, and the fluorescence values were normalized to the maximal response.

5-HT3A receptor Y73S = target: T4, 5-HT3A receptor Y73S (Homo sapiens, UniProt P46098, Y68S); assay: radioligand saturation binding, transfected HEK293 membranes; details: [3H]-palonosetron saturation, 5-HT3A Y73S, 4 °C, 24 h
T4 sequence (P46098 24-478 Y68S): T1 sequence (P46098 24-478) with Y45S
Method: as §1, §2, §3

[3] = target: T5, 5-HT3AB receptor, 5-HT3B subunit I183A (Homo sapiens, UniProt O95264+P46098, I176A); assay: FlexStation membrane potential dye functional assay, HEK293 cells; details: 5-HT concentration-response, 5-HT3AB with 5-HT3B I183A
T5 sequence (P46098 24-478): T1 sequence (P46098 24-478)
T5 sequence (O95264 22-441 I176A): T1 sequence (O95264 22-441 partner) with I155A
Method: as §4, §5, §6

| Compound | Kd [1] [nM] | Kd (5-HT3A receptor S163A) [nM] | IC50 [2] [nM] | Kd (5-HT3A receptor Y73S) [nM] | Hill Coefficient [3] |
| --- | --- | --- | --- | --- | --- |
| O=C1c2cccc3c2[C@H](CCC3)CN1[C@@H]1CN2CCC1CC2 [Palonosetron] | 0.21 ± 0.03 | 0.3 ± 0.08 | 0.38 ± 0.05 | 0.61 ± 0.11 |  |
| NCCc1c[nH]c2ccc(O)cc12 [5-HT, serotonin] |  |  |  |  | 1.2 ± 0.2 |
